These results are taken from patent publication US5451397A, “Bile acid sequestrant” (priority 1992, dated 1995).

The subject of this data set is Chinese hamster ovary (CHO) cell cultures. Format: cell-based. How it is done:
A suspension of particles of the sequestrant in deionized water was prepared. The suspension was serially diluted into serumless culture medium. The most concentrated suspension tested was 1000 micrograms sequestrant per milliliter suspension (μg/ml). Exponentially growing Chinese hamster ovary (CHO) cell cultures were treated with the sequestrant dilutions for three hours. The cultures were gently rocked on a rocker platform during treatment in an attempt to maintain a uniform suspension over the cells for the entire treatment period. Negative controls i.e., CHO cell cultures treated with serumless culture medium, and solvent controls, i.e., CHO cell cultures treated with 1% deionized water in serumless culture medium, were included. Treatment was terminated by washing the cultures twice with Dulbecco's phosphate buffered saline and cells were allowed to recover in McCoy's 5A medium containing 10% fetal bovine serum for 0, 5 or 21 hours, i.e., 3, 8 or 24 hours from the beginning of treatment. […] The harvested cells were counted by Coulter counter to determine relative reductions in cell numbers. At selected doses, Trypan blue exclusion counts were conducted using a hemacytometer to determine cell viability to control for the possibility that some dead cells may have been counted with the Coulter counter. […]

For the substance “poly(dimethylaminopropylmethacrylamide) [Comparative Example C1]”, the “ED50 (dosage effective to kill 50% of the cells)” value is 10.0 µg/mL.
